In patent publication US6706744B2, “Glucagon antagonists/inverse agonists” (Novo Nordisk A/S, priority 2000, dated 2004):

Experiments:
[1] = biological target: T1, human glucagon receptor (Homo sapiens, UniProt P47871); assay: Glucagon binding assay (II); conditions: membranes of BHK cells transfected with human glucagon receptor; 125I-glucagon tracer; SPA
T1 construct: expressed in transfected cells; host or cells: BHK (baby hamster kidney) cells; membrane preparation
Description: Glucagon Binding Assay (II)
(§1) BHK (baby hamster kidney cell line) cells are transfected with the human glucagon receptor and a membrane preparation of the cells is prepared. Wheat Germ Agglutinin derivatized SPA beads containing a scintillant (WGA beads) (Amersham) bound the membranes. ^125I-glucagon bound to human glucagon receptor in the membranes and excited the scintillant in the WGA beads to light emission. Glucagon or samples binding to the receptor competed with ^125I-glucagon.
(§2) All steps in the membrane preparation are kept on ice or performed at 4° C. BHK cells are harvested and centrifuged. The pellet is resuspended in homogenisation buffer (25 mM HEPES, pH=7.4, 2.5 mM CaCl2, 1.0 mM MgCl2, 250 mg/l bacitracin, 0, 1 mM Pefabloc), homogenised 2×10 sec using Polytron 10-35 homogenizer (Kinematica) and added the same amount of homogenisation buffer as used for resuspension. After centrifugation (15 min at 2000×g) the supernatant is transferred to cold centrifuge tubes and centrifuged for 45 min at 40.000×g. The pellet is resuspended in homogenisation buffer, homogenised 2×10 sec (Polytron) and additional homogenisation buffer is added. The suspension is centrifuged for 45 min at 40.000×g and the pellet is resuspended in resuspension buffer (25 mM HEPES, pH=7.4, 2.5 mM CaCl2, 1.0 mM MgCl2) and homogenised 2×10 sec. (Polytron). The protein concentration is normally around 1.75 mg/ml. Stabilisation buffer (25 mM HEPES, pH=7.4, 2.5 mM CaCl2, 1.0 mM MgCl2, 1% bovine serum albumin, 500 mg/l bacitracin, 2.5 M sucrose) is added and the membrane preparation is stored at −80° C.
The glucagon binding assay is carried out in opti plates (Polystyrene Microplates, Packard). 50 μL assay buffer (25 mM HEPES, pH=7.5, 2.5 mM CaCl2, 1.0 mM MgCl2, 0.003% Tween-20, 0.005% bacitracin, 0.05% sodium azide) and 5 μl glucagon or test compound (in DMSO) are added to each well. 50 μl tracer (^125I-porcine glucagon, 50.000 cpm) and 50 μl membranes (7.5 μg) containing the human glucagon receptor are then added to the wells. Finally 50 μl WGA beads containing 1 mg beads are transferred to the well. The opti plates are incubated for 4 hours on a shaker and then settled for 8-48 hours. The opti plates are counted in a Topcounter. Non-specific binding is determined with 500 nM of glucagon.

[2] = biological target: T2, human GIP receptor (Homo sapiens, UniProt P48546); assay: GIP binding assay; conditions: membranes of BHK cells transfected with human GIP receptor; 125I-GIP tracer; SPA
T2 construct: expressed in transfected cells; host or cells: BHK (baby hamster kidney) cells; membrane preparation
T2 sequence (P48546 22-466): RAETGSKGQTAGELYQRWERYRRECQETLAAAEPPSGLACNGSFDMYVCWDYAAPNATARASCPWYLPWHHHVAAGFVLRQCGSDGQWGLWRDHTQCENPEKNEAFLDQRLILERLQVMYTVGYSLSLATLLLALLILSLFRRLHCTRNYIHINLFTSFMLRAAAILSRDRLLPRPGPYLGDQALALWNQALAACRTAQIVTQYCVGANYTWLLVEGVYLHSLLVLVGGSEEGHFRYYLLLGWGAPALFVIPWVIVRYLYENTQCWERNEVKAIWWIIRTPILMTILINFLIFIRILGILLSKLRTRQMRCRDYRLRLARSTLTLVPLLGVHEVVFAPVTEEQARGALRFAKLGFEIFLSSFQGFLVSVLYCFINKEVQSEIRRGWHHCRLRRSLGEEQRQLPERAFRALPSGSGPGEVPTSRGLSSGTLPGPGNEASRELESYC
Description: as §1, with “GIP” for “glucagon”, “^125I-GIP” for “^125I-glucagon”, “GIP” for “Glucagon”, “^125I-GIP.” for “^125I-glucagon.”
as §2, with “0.1” for “0, 1”
The GIP binding assay is carried out in opti plates (Polystyrene Microplates, Packard). 50 μl assay buffer (25 mM HEPES, pH=7.5, 2.5 mM CaCl2, 1.0 mM MgCl2, 0.003% Tween-20, 0.005% bacitracin, 0.05% sodium azide) and 5 μl GIP or test compound (in DMSO) are added to each well. 50 μl tracer (^125I-porcine GIP, 50.000 cpm) and 50 μl membranes (20 μg) containing the human GIP receptor are then added to the wells. Finally 50 μl WGA beads containing 1 mg beads are transferred to the well. The opti plates are incubated for 3.5 hours on a shaker and then settled for 8-48 hours. The opti plates are counted in a Topcounter. Non-specific binding is determined with 500 nM of GIP.

T1 sequence (P47871 26-477): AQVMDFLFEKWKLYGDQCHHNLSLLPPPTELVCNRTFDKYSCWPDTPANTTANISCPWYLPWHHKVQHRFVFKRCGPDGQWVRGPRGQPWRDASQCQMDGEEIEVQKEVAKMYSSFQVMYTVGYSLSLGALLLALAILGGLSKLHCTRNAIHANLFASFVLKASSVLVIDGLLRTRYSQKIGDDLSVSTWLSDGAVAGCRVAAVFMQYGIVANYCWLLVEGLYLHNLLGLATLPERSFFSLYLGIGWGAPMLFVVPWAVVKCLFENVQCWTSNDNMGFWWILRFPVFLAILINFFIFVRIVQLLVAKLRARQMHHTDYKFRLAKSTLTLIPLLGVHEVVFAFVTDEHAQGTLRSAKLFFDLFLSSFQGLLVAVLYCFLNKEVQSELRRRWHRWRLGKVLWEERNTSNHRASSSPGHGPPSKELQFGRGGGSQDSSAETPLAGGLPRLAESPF

Row | Compound | IC50 [1] | IC50 [2] | melting point
1 | N#Cc1cc(NC(=O)N(Cc2ccc(C(=O)NCCC(=O)O)cc2)c2ccc(C3CCCCC3)cc2)cc(C(F)(F)F)c1 [Example 8, 3-{4-[3-(3-Cyano-5-trifluoromethylphenyl)-1-(4-cyclohexylphenyl)ureidomethyl]benzoyl-amino}propionic acid] | 35 nM | 76 nM | –
2 | CS(=O)(=O)c1cc(NC(=O)N(Cc2ccc(C(=O)NCCC(=O)O)cc2)c2ccc(C3=CCCCC3)cc2)ccc1OC(F)(F)F [Example 6, 3-{4-[1-(4-Cyclohexen-1-ylphenyl)-3-(3-methanesulfonyl-4-trifluoromethoxyphenyl)ureidomethyl]benzoylamino}propionic acid] | 9 nM | 177 nM | –
3 | O=C(O)CCNC(=O)c1ccc(CN(C(=O)Nc2cccc(Br)c2)c2ccc(C3CCCCC3)cc2)cc1 [Example 5, 3-{4-[3-(3-Bromophenyl)-1-(4-Cyclohexylphenyl)ureidomethyl]benzoylamino}propionic acid] | 42 nM | 265 nM | –
4 | O=C(O)CCNC(=O)c1ccc(CN(C(=O)Nc2ccc(OC(F)(F)F)c(CO)c2)c2ccc(C3=CCCCC3)cc2)cc1 [Example 11, 3-{4-[1-(4-Cyclohex-1-enylphenyl)-3-(3-hydroxymethyl-4-trifluoromethoxyphenyl)ureidomethyl]benzoylamino}propionic acid] | 64 nM | 152 nM | –
5 | O=C(O)CCNC(=O)c1ccc(CN(C(=O)Nc2cccc(OC(F)(F)F)c2)c2ccc(C3=CCCCC3)cc2)cc1 [Example 3, 3-{4-[3-(3-Trifluoromethoxyphenyl)-1-(4-cyclohex-1-enylphenyl)ureidomethyl]benzoylamino}propionic acid] | 25 nM | 34 nM | –
6 | C[C@H](NC(=O)N(Cc1ccc(C(=O)NCCC(=O)O)cc1)c1ccc(C2CCCCC2)cc1)c1ccc(Cl)cc1 [Example 1, 3-{4-[3-[1(S)-(4-Chlorophenyl)ethyl]1-(4-cyclohexylphenyl)ureidomethyl]benzoylamino}propionic acid] | 64 nM | 644 nM | –
7 | O=C(O)CCNC(=O)c1ccc(CN(C(=O)Nc2ccc(OC(F)(F)F)c(CO)c2)c2ccc(C3CCCCC3)cc2)cc1 [Example 10, 3-{4-[1-(4-Cyclohexylphenyl)-3-(3-hydroxymethyl-4-trifluoromethoxyphenyl)ureidomethyl]benzoylamino}propionic acid] | 49 nM | 107 nM | 167.5 to 168.5 °C
8 | N#Cc1cc(NC(=O)N(Cc2ccc(C(=O)NCCC(=O)O)cc2)c2ccc(C3=CCCCC3)cc2)cc(C(F)(F)F)c1 [Example 9, 3-{4-[3-(3-Cyano-5-trifluoromethylphenyl)-1-(4-cyclohex-1-enylphenyl)ureidomethyl]benzoyl-amino}propionic acid] | 42 nM | 122 nM | –
9 | O=C(O)CCNC(=O)c1ccc(CN(C(=O)Nc2cccc(Br)c2)c2ccc(C3=CCCCC3)cc2)cc1 [Example 2, 3-{4-[3-(3-Bromophenyl)-1-(4-cyclohex-1-enylphenyl)ureidomethyl]benzoylamino}propionic acid] | 53 nM | 198 nM | –
10 | O=C(O)CCNC(=O)c1ccc(CN(C(=O)Nc2cc(F)cc(C(F)(F)F)c2)c2ccc(C3CCCCC3)cc2)cc1 [Example 4, 3-{4-[1-(4-Cyclohexylphenyl)-3-(3-fluoro-5-trifluoromethylphenyl)ureidomethyl]benzoylamino}propionic acid] | 29 nM | 90 nM | –
11 | O=C(O)CCNC(=O)c1ccc(CN(C(=O)Nc2cccc(C(F)(F)F)c2)c2ccc(C3CCCCC3)cc2)cc1 [Example 7, 3-{4-[1-(4-Cyclohexylphenyl)-3-(3-trifluoromethylphenyl)ureidomethyl]benzoylamino}propionic acid] | 29 nM | 82 nM | –
